According to patent US9107909B2, “Materials and methods to enhance hematopoietic stem cells engraftment procedures” (priority 2008, dated 2015):
“And” between values parts separate entries of the source, which are not always exact repeats. Equal values may be shown once. “Also recorded” adds a separate entry of the source.

Legend:
[1] = tested on: active caspase-3 in SKL cells; assay: Active caspase-3 by FACS in SKL cells; format: cell-based, mouse
Description: (§1) All antibodies were purchased from BD Biosciences unless otherwise noted. For detection and sorting of murine KL and SKL cells, streptavidin conjugated with PE-Cy7 (to stain for biotinylated MACS lineage antibodies (Miltenyi Biotech, Auburn, Calif.)), c-kit-APC, Sca-1-PE or APC-Cy7, CD45. 1-PE and CD45.2-FITC were used. UCB CD34^+ cells were detected using anti-human-CD34-APC. For multilineage analysis, APC-Cy7-Mac-1, PE-Cy7-B-220 and APC-CD3 were used. EP receptors were detected with anti EP1, EP2, EP3 and EP4 rabbit IgG (Cayman Chemicals) and secondary staining with FITC-goat-anti-rabbit IgG (Southern Biotech, Birmingham, Ala.). CXCR4 expression was analyzed using streptavidin-PECy7, c-kit-APC, Sca-1-APC-Cy7, and CXCR4-PE. Apoptosis was measured with FITC-Annexin-V. For Survivin and active caspase-3 detection, cells were permeabilized and fixed using the CytoFix/CytoPerm kit (BD) and stained with anti-active-caspase-3-FITC Flow Kit (BD) or Survivin-PE (R&D Systems).
Expression of EP receptors, CXCR4 and Survivin Replicate Lin^neg cell samples from CD45.2 mice were stained for SKL and each of the EP receptors and surface receptor expression on KL and SKL cells determined by FACS. […] Replicate cells were stained for CD34 and each of the EP receptors and surface expression determined by FACS. […]

[2] = tested on: long-term repopulating HSPC; assay: Limiting dilution competitive transplantation of ex vivo pulsed bone marrow; format: in vivo, mouse
Description: WBM cells (CD45.2) were treated on ice for 2 hours with either 1 microMolar dmPGE2 (Cayman Chemical, Ann Arbor, Mich.) per 1×10^6 cells or 0.01% ETOH in sterile, non-pyrogenic PBS. After incubation, cells were washed twice and mixed with 2×10^5 congenic CD45.1 competitor marrow cells at ratios of 0.075:1, 0.25:1, 1:1, and 2.5:1 and transplanted into lethally irradiated CD45.1 mice (1100-cGy split dose) by tail-vein injection (5 mice per dilution). CD45.1 and CD45.2 cells in PB were determined monthly by flow cytometry. For head-to-head competitive transplants, WBM from CD45.1 mice and CD45.2 mice were treated with vehicle or dmPGE2 and mixed with 2×10^5 competitor marrow cells from CD45.1/CD45.2 mice at ratios of 0.075:1, 0.25:1, 1:1, and 2.5:1 and transplanted into lethally irradiated CD45.1/CD45.2 mice. The proportion of CD45.1, CD45.2, and CD45.1/CD45.2 cells in PB was determined monthly. HSPC frequency was quantitated by Poisson statistics using L-CALC software (Stem Cell Technologies, Vancouver BC, Canada) with <5% contribution to chimerism considered a negative recipient. Competitive repopulating units (CRU) were calculated as described (Harrison, 1980). For secondary transplants, 2×10^6 WBM from previously transplanted F1 Hybrid mice at the 1:1 ratio at 20 weeks post-transplant were injected into lethally irradiated F1 Hybrid mice in non-competitive fashion and PB chimerism and tri-lineage reconstitution evaluated monthly.
Referring now to FIG. 1A, bone marrow from CD45.1 or CD45.2 mice were treated with vehicle or dmPGE2 respectively. CD45.1/CD45.2 hybrid marrow cells were used as competitors. Limiting dilutions were transplanted into lethally irradiated (1100 cGys, split dose) CD45.1/CD45.2 hybrid mice and chimerism in PB analyzed for 20 weeks. A representative flow plot detecting each cell population is shown (bottom panel).
Referring now to FIG. 1B, frequency analysis (top) for vehicle (red) or dmPGE2 (blue) pulsed cells, determined by Poisson statistics, at 12 weeks; P0=85,560 (vehicle) and P0=23,911 (dmPGE2 treated). Chimerism in PB and CRU analysis is shown at 12 weeks (Mean±SEM). Data represent 2 pooled experiments, n=5 mice/group/expt., each assayed individually.
This model permits quantitative comparison of engraftment and competitiveness of HSPC from control and dmPGE2 treatment groups within the same animal (FIG. 1A), as well as endogenous repopulation of host cells.
For head-to-head competitive analysis, WBM from CD45.1 and CD45.2 mice were treated with vehicle or dmPGE2 and mixed with 2×10^5 competitor marrow cells from CD45.1/CD45.2 mice at various ratios and transplanted into lethally-irradiated CD45.1/CD45.2 mice. The proportion of CD45.1, CD45.2, and CD45.1/CD45.2 cells in PB was determined monthly. For secondary, tertiary and quaternary transplants, 2×10^6 WBM from previously transplanted CD45.1/CD45.2 mice at a 1:1 ratio were injected into lethally-irradiated CD45.1/CD45.2 mice in non-competitive fashion. The proportion of CD45.1, CD45.2, and CD45.1/CD45.2 cells in PB was determined monthly. […] Data for 20 week primary transplant were from 2 pooled experiments, n=5 mice/group/experiment, each assayed individually. Data for secondary, tertiary, and quaternary transplants were from n=5 mice/group, each assayed individually

[3] = tested on: Survivin in murine SKL cells; assay: Intracellular Survivin by FACS, murine SKL cells; format: cell-based, mouse; conditions: vs control; for increase in Survivin protein, murine SKL cells: 24 hours post-pulse
Description: as §1
Expression of EP receptors, CXCR4 and Survivin Replicate Lin^neg cell samples from CD45.2 mice were stained for SKL and each of the EP receptors and surface receptor expression on KL and SKL cells determined by FACS. For human EP receptors, UCB was obtained from Wishard Hospital, Indianapolis, Ind. with Institutional Review Board approval. Mononuclear cells were isolated on Ficoll-Paque™ Plus (Amersham Biosciences) and CD34^+ cells positively selected with MACS microbeads (Miltenyi Biotech) (Fukuda and Pelus, 2001). Replicate cells were stained for CD34 and each of the EP receptors and surface expression determined by FACS. To evaluate CXCR4, Survivin and active caspase-3, Lin^neg cells or CD34^+ UCB were treated on ice with either 1 microMolar dmPGE2 or vehicle control for 2 hours, washed, and then cultured in RPMI-1640+10% FBS at 37° C. for 24 hours. Cells were stained for SKL (murine cells) and CXCR4, Survivin, and/or active caspase-3, as described above, and analyzed by FACS. […]

[4] = 12 weeks post-transplant, vs vehicle treated cells

SMILES	decrease in active caspase-3 ([1]; 24-72 hours post exposure)	number of treated cells giving equivalent reconstitution vs control cells ([2]; frequency analysis, limiting dilution)	period over which enhanced engraftment / HSPC frequency was stable ([2]; primary transplant)	competitive advantage / increase in HSPC frequency of PGE2-pulsed HSPC ([2]; short-term ex vivo exposure, vs control cells, Poisson statistics and CRU)	increase in Survivin protein, murine SKL cells [3]	active caspase-3 in SKL cells ([1]; 24, 48 and 72 hours post-exposure, vs control)	chimerism in peripheral blood [2, 4]	increase in HSPC frequency and competitive repopulating units (CRU) [2, 4]	reconstitution of B- and T-lymphoid and myeloid lineages in PB ([2]; 32 weeks post-transplant, vs untreated competitor or vehicle treated cells)	HSPC frequency analysis P0 (Poisson statistics) ([2]; at 12 weeks, pulsed cells)	chimerism in serial (secondary, tertiary, quaternary) transplants ([2]; no additional treatment before serial transplant)	increase in HSPC frequency ([2]; throughout 20 weeks of follow up post-transplant)	Survivin mRNA ([3]; QRT-PCR)
CCCCC[C@H](O)/C=C/[C@H]1[C@H](O)CC(=O)[C@@H]1C/C=C\CCCC(=O)O [PGE2, Prostaglandin E2]	23-59%	one-fourth	28 weeks and > 20 weeks	4 fold	1.7 fold								
CCCCC(C)(C)[C@H](O)/C=C/[C@H]1[C@H](O)CC(=O)[C@@H]1C/C=C\CCCC(=O)O [dmPGE2, 16,16-dimethyl prostaglandin E2]					1.7 fold	decreased active caspase-3	increased chimerism	~4 fold	no discernible differences	23,911	also seen in secondary transplants; also recorded: Increased chimerism	~4 fold	elevated Survivin mRNA
